Series [1] has as its system 3T3-L1 cells. The note with it: 10 μM, reference 31; cited from earlier work.
For series [2], the system named is 3T3-L1 cells. Kind of series: Cell viability (MTT assay). Type of series: cell-based, Mouse. The note with it: 10 μM, regardless of the isoproterenol treatment, FIG. 3C. Background: Tetrazolium assays rely on reduction of a dye to a coloured formazan, in cell work by metabolically active cells.
Series [3] deals with 3T3-L1 cells. The series can be described thus: Adipolysis assay (glycerol release) in 3T3-L1 cells. The note with it: 10 μM, FIG. 3B; for isoproterenol-stimulated adipolysis: isoproterenol 100 nM for 24 hours. Type of series: cell-based, Mouse. Here is the method: Mouse 3T3-L1 pre-adipocytes were cultured in Dulbecco's Modified Eagle's Medium (DMEM) supplemented with 10% fetal bovine serum, 100 units/ml penicillin and 100 μg/ml streptomycin at 37° C. in a humidified 95% air and 5% CO2 atmosphere. All cell culture reagents were purchased from Invitrogen (Carlsbad, Calif., USA). To initiate 3T3-L1 adipocyte differentiations, the standard differentiation cocktail (250 nM dexamethasone, 100 mM 3-isobutyl-1-methylxanthine and 175 nM human insulin, all purchased from Sigma, St. Louis, Mo.) was added to the medium after 2 days post-confluence. After 2 days, the medium was replaced with fresh complete medium containing insulin. Culture medium was changed every 2 days. Levofloxacin or benzbromarone (BBR) (Sigma, St. Louis, Mo.) was dissolved in DMSO and added to the medium at the beginning of pre-adipocyte differentiations. […] Confluent 3T3-L1 pre-adipocytes (day 0) were stimulated by the differentiation cocktail and cultured for 2 days with culture medium (Control), 10 μM of levofloxacin (Levofloxacin) or 10 μM benzbromarone (BBR). At day 2, the culture medium was collected and the extent of adipolysis was evaluated using Adipolysis Assay Kit (Cayman Chemical: 10009381, MI, US). During adipolysis, triglycerides are hydrolysed to release free fatty acids and glycerol. The amount of glycerol released into the medium as measured by the kit is proportional to the degree of adipolysis. Basal adipolysis and isoproterenol-induced adipolysis were studied. Isoproterenol was included as a positive control for screening pharmaceuticals that are known to regulate the adipolysis. Cells were treated with 100 nM of isoproterenol for 24 hours after the treatment with culture medium, levofloxacin or benzbromarone. Results were repeated at least three times from three independent experiments and presented as mean±SD, n=3 (FIG. 3B). The results were statistically analyzed by one-way ANOVA test. *, P<0.05; compared with the control group. #, P<0.05; compared with the isoproterenol-treated group.

For another series, the system named is PPARγ. Kind of series: Western blot detection of PPARγ protein level in 3T3-L1 cells. In kind it is cell-based, Mouse. The settings on record: 10 μM, Day 6, cell lysate, FIG. 3E. On the procedure:
Mouse 3T3-L1 pre-adipocytes were cultured in Dulbecco's Modified Eagle's Medium (DMEM) supplemented with 10% fetal bovine serum, 100 units/ml penicillin and 100 μg/ml streptomycin at 37° C. in a humidified 95% air and 5% CO2 atmosphere. All cell culture reagents were purchased from Invitrogen (Carlsbad, Calif., USA). To initiate 3T3-L1 adipocyte differentiations, the standard differentiation cocktail (250 nM dexamethasone, 100 mM 3-isobutyl-1-methylxanthine and 175 nM human insulin, all purchased from Sigma, St. Louis, Mo.) was added to the medium after 2 days post-confluence. After 2 days, the medium was replaced with fresh complete medium containing insulin. Culture medium was changed every 2 days. Levofloxacin or benzbromarone (BBR) (Sigma, St. Louis, Mo.) was dissolved in DMSO and added to the medium at the beginning of pre-adipocyte differentiations.
As in the above Oil Red O Staining assay, cells were harvested on Day 6 and the total protein was collected for western blotting to estimate the PPARγ protein level in the treated 3T3-L1 cells. […] Specific bands were detected using […] (BCIP) and nitro blue tetrazolium (NBT) system (Bio-Rad, Hercules, Calif.) and photographed (FIG. 3E). […]

Series [4] concerns 3T3-L1 cells. The series can be described thus: Oil Red O staining (induction of adipogenesis). The settings on record: 10 μM, days 0-6 of differentiation, versus control group, FIG. 3D. In kind it is cell-based, Mouse.
A further series addresses human FABP4 (Homo sapiens, UniProt P15090). Kind of series: FABP4 Inhibitor/Ligand Screening Assay Kit, cell-free ligand displacement fluorescence-labeled probe assay. The settings on record: for inhibition at 10 µM: read-out: % FABP4 inhibition (10 μM). In kind it is binding.

The text below walks through data of US9968616B2, “Discovery of FDA-approved drugs as inhibitors of fatty acid binding protein 4 using molecular docking screening” (The Chinese University of Hong Kong, priority 2014, dated 2018).

The term IC50 denotes the concentration that gives 50% inhibition. One may read the inhibition as the change of the read-out against control, counted positive when it falls.

human FABP4, sequence (P15090 whole entry): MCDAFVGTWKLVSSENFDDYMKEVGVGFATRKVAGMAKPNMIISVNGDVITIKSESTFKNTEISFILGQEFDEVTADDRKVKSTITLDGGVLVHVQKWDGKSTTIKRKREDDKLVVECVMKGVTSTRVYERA

With `CCc1oc2ccccc2c1C(=O)c1cc(Br)c(O)c(Br)c1` [BBR, benzbromarone], the “adipolysis (literature report)” value with 3T3-L1 cells [1] was “inhibits the adipolysis”. Further, the “proliferation/viability of 3T3-L1 cells (cytotoxicity)” value in the series on 3T3-L1 cells [2] is on record as “not affected”. In the series on 3T3-L1 cells [3], the basal adipolysis entry was “inhibitory effects were also observed” and the isoproterenol-stimulated adipolysis result is on record as “inhibitory effects were also observed”.
Turning to `C[C@H]1COc2c(N3CCN(C)CC3)c(F)cc3c(=O)c(C(=O)O)cn1c23` [Levofloxacin, (S)-9-fluoro-2,3-dihydro-3-methyl-10-(4-methylpiperazin-1-yl)-7-oxo-7H-pyrido[1,2,3-de]-1,4-benzoxazine-6-carboxylic acid], in the series on PPARγ, the “protein expression of PPARγ” value is listed as “did not increase”. Moreover, the “lipid accumulation (red dots, Oil Red O)” value with 3T3-L1 cells [4] was “did not promote lipid accumulation”. For the same molecule, the “proliferation/viability of 3T3-L1 cells (cytotoxicity)” value with 3T3-L1 cells [2] is reported as “not affected”. For the same molecule, the IC50 at human FABP4 (dose-response, Prism 5, read-out: IC50 FABP4 activity inhibition) worked out at 5.83 µM. Also, the inhibition at 10 µM at human FABP4 was 70 ± 12.2%. Besides, in the series with 3T3-L1 cells [3], the basal adipolysis entry was “inhibited” and the isoproterenol-stimulated adipolysis entry is “inhibited”.
Turning to `Cc1nc2n(c(=O)c1CCN1CCC(c3noc4cc(F)ccc34)CC1)CCCC2O` (stereo not drawn) [Paliperidone], the inhibition at 10 µM at human FABP4 turned out to be 5.12 ± 6.9%.
Turning to `O=c1[nH]c2ccccc2n1C1CCN(CCCC(c2ccc(F)cc2)c2ccc(F)cc2)CC1` [Pimozide], at human FABP4, the inhibition at 10 µM was 47 ± 11.3%.
In the case of `Cc1nc2n(c(=O)c1CCN1CCC(c3noc4cc(F)ccc34)CC1)CCCC2` [Risperidone], the inhibition at 10 µM on human FABP4 came out at 1.64 ± 12.9%.
Still for that read-out and setting: the figure for `N[C@@H]1[C@H]2CN(c3nc4c(cc3F)c(=O)c(C(=O)O)cn4-c3ccc(F)cc3F)C[C@@H]12` [Trovafloxacin] is 57.5 ± 12.2%.
